In patent US20250257075A1, “MACROCYCLIC INHIBITORS OF KRAS FOR THE TREATMENT OF CANCER” (Hoffmann-La Roche Inc., priority 2022, published 2025):

What was measured:
SW620 cells (KRAS G12V) = assay: Cell viability assay, G12V; assay type: cell-based, human; settings: SW620, 72 hrs, Cell Counting Kit-8
Procedure: (§1) The purpose of this cellular assay was to determine the effects of test compounds on the proliferation of human cancer cell lines NCI-H358 (ATCC-CRL5807) cells, AGS (ATCC-CRL-1739) cells, SW620 (ATCC-CCL-227) over a 3-day treatment period by quantifying the amount of NADPH present at endpoint using Cell Counting Kit-8.
(§2) Cells were seeded at 5,000 cells/well (NCI-H358), 2,000 cells/well (AGS) 2,000 cells/well (SW620) in 96-well assay plates (Corning-3699) and incubated overnight. On the day of the assay, diluted compounds were then added in a final concentration of 0.5% DMSO. After 72 hrs incubation, a tenth of the volume of cell counting kit 8 (Dnjindo-CK04) was added into each well. Read the signal (OD450 minus OD650) using EnVision after 2 hrs incubation. IC50 was determined by fitting a 4-parameter sigmoidal concentration response model.

[1] = molecular target: KRAS G12D binding to BRAF (Homo sapiens, UniProt P01116+P62937, G12D); assay: KRAS-BRAF with CYPA (500 nM) interaction assay (TR-FRET), G12D; assay type: biochemical; settings: 3 hours
Procedure: (§3) Kras-BRAF with CYPA (500 nM) Interaction Assay In this example, TR-FRET was also used to measure the compound or compound-CYPA dependent disruption of the KRAS G12C-BRAF complex. This protocol was also used to measure disruption of KRAS G12D or KRAS G12V binding to BRAF by a compound of the invention, respectively. […] TR-FRET signal was read on a […] microplate reader (Ex320 nm, Em 665/615 nm). Compounds that facilitate disruption of the KRAS-BRAF complex were identified as those eliciting a decrease in the TR-FRET ratio relative to DMSO control wells.

[2] = test system: phosphorylation of ERK, KRAS G12C in NCI-H358 cells; assay: pERK inhibition assay, G12C; assay type: cell-based, human; settings: NCI-H358, 4 hours of incubation
Procedure: (§4) This assay is to measure the ability of test compounds in inhibiting the phosphorylation of ERK, the downstream signaling of KRAS G12C in NCI-H358 cells, KRAS G12D in AGS cells, and KRAS G12V in SW620. NCI-H358 (ATCC-CRL5807) cells, AGS (ATCC-CRL-1739) cells, SW620 (ATCC-CCL-227) cells were all grown and maintained using RPMI-1640 medium (Thermo Fisher Scientific) with 10% fetal bovine serum and 1% penicillin/streptomycin. On the day prior to compound addition, cells were plated in tissue culture-treated 96 well plates (Corning-3699) at a density of 30,000 cell/well, 20,000 cell/well, 30,000 cell/well for NCI-H358, AGS and SW620 respectively, and allowed for attachment overnight. Diluted compounds were then added in a final concentration of 0.5% DMSO. After 4 hours of incubation, the medium was removed, 100 μL of 4% formaldehyde was added, and the assay plates were incubated at room temperature for 20 minutes. The plates were then washed once with phosphate buffered saline (PBS), and permeabilized with 100 μL of chilled methanol for 10 minutes. Non-specific antibody binding to the plates was blocked using 50 μL 1×BSA blocking buffer (Thermo-37520, 10-fold dilution by Phosphate-Buffered Saline Tween (PBST) for at least 1 hour at room temperature.
(§5) The amount of phosphor-ERK was determined using an antibody specific for phosphorylated form of ERK. Primary antibody (pERK, CST-4370, Cell Signaling Technology) was diluted 1:300 in blocking buffer, with 50 μL aliquoted to each well, and incubated overnight at 4° C. Cells was washed five times for 5 minutes with PBST. Secondary antibody (HRP-linked anti-rabbit IgG, CST-7074, Cell Signaling Technology) was diluted 1:1000 in blocking buffer, and 50 μL was added to each well and incubated 1-2 hrs at room temperature. Cells was washed 5 times for 5 minutes with PBST, 100 μL TMB ELISA substrate (abcam-ab171523) were added and gently shake for 20 minutes. 50 μL stop solution (abcam-ab171529) were added, and then read the signal (OD450) by EnVision.
(§6) IC50 was determined by fitting a 4-parameter sigmoidal concentration response model.

[3] = test system: NCI-H358 cells (KRAS G12C); assay: Cell viability assay, G12C; assay type: cell-based, human; settings: NCI-H358, 72 hrs, Cell Counting Kit-8
Procedure: as §1, §2

KRAS G12C-BRAF complex [4] = molecular target: T1, KRAS G12C-BRAF complex (Homo sapiens, UniProt P01116+P62937, G12C); assay: KRAS G12C-BRAF NanoBit assay in HEK293 cells; assay type: cell-based; settings: HEK293 stable cell pool, 3 hours of incubation
T1 construct: expressed in transfected cells
Procedure: This assay is to measure the ability of tested compounds in disruption of the KRAS G12C-BRAF complex at the cellular level, we established the NanoBit cellular assay in mammalian HEK293 (ATCC) cells. HEK293 cells were grown and maintained using DMEM medium (Thermo Fisher Scientific) with 10% fetal bovine serum and 1% penicillin/streptomycin. Both KRAS G12C and BRAF RBD were cloned into the NanoBit vectors ([…] vectors system, Promega) with the orientations SmBit-KRAS G12C and BRAF RBD-LgBit, respectively, and co-transfected into HEK293 cells. Cells were then selected with 100 μg/mL Hygromycin B (10687010, Thermo Fisher) and Blasticidin (5 μg/mL) for 4 weeks to get the stable cell pool. On the day of the assay, 75 nL of compound solution was presented in a 384-well assay plate as a 16-point 3-fold dilution starting from a final concentration of 30 μM in DMSO. Then cells were seeded at 10,000 cells/25 μL/well in a 384-well plate. After 3 hours of incubation, 6 μL of volume of Nano-Glo® Live Cell Substrate (Promega) was added into each well. Monitor luminescence using ultra384 model in Envision at 20 minutes. Compounds that facilitate disruption of the KRAS G12C-BRAF RBD complex were identified as those eliciting a decrease of luminescence relative to DMSO control wells.

[5] = molecular target: KRAS G12V binding to BRAF (Homo sapiens, UniProt P01116+P62937, G12V); assay: KRAS-BRAF with CYPA (500 nM) interaction assay (TR-FRET), G12V; assay type: biochemical; settings: 3 hours
Procedure: as §3

[6] = test system: phosphorylation of ERK, KRAS G12V in SW620; assay: pERK inhibition assay, G12V; assay type: cell-based, human; settings: SW620, 4 hours of incubation
Procedure: as §4, §5, §6

KRAS G12C-BRAF complex [7] = molecular target: T1, KRAS G12C-BRAF complex; assay: KRAS-BRAF with CYPA (500 nM) interaction assay (TR-FRET), G12C; assay type: biochemical; settings: 3 hours
Procedure: as §3

[8] = test system: phosphorylation of ERK, KRAS G12D in AGS cells; assay: pERK inhibition assay, G12D; assay type: cell-based, human; settings: 4 hours of incubation
Procedure: as §4, §5, §6

AGS cells (KRAS G12D) = assay: Cell viability assay, G12D; assay type: cell-based, human; settings: 72 hrs, Cell Counting Kit-8
Procedure: as §1, §2

Sequence of KRAS G12D binding to BRAF (P01116 1-188 isoform P01116-2 G12D): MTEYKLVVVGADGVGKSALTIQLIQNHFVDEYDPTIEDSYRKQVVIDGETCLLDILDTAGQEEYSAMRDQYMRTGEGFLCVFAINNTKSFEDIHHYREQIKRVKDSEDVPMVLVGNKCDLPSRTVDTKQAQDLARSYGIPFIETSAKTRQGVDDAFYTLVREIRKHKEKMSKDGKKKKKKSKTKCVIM
Sequence of KRAS G12D binding to BRAF (P62937 whole entry): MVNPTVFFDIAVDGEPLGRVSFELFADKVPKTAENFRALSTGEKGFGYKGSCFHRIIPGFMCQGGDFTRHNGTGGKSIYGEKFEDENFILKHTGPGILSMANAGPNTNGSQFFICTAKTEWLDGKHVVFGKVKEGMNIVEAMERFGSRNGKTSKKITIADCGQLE
Sequence of KRAS G12V binding to BRAF (P01116 1-188 isoform P01116-2 G12V): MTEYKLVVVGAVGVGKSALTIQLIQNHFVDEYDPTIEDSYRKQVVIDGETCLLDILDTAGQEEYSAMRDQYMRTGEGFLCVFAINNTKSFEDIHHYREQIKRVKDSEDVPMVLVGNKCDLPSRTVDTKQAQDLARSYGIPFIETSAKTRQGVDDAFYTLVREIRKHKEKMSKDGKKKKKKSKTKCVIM
Sequence of KRAS G12V binding to BRAF (P62937 whole entry): as the sequence (P62937 whole entry) above
T1 sequence (P01116 1-188 isoform P01116-2 G12C): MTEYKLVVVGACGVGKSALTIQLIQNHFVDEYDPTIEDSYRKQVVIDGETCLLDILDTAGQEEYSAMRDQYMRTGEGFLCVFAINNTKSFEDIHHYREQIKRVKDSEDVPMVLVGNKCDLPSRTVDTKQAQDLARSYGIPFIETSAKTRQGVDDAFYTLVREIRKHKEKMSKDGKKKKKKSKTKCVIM
T1 sequence (P62937 whole entry): as the sequence (P62937 whole entry) above

IC50 (SW620 cells (KRAS G12V); Homo sapiens, SW-620)	IC50 [1]	IC50 ([2]; Homo sapiens)	IC50 ([3]; Homo sapiens)	IC50 (KRAS G12C-BRAF complex [4])	IC50 [5]	IC50 ([6]; Homo sapiens, SW-620)	IC50 (KRAS G12C-BRAF complex [7])	IC50 ([8]; Homo sapiens)	IC50 (AGS cells (KRAS G12D); Homo sapiens)	IC50 (SW620 cells (KRAS G12V))	IC50 [2]	IC50 [3]	IC50 [6]	IC50 [8]	IC50 (AGS cells (KRAS G12D))	Compound
> 5 µM	3.01 µM	0.292 µM	0.436 µM	0.418 µM	1.98 µM	0.498 µM	0.819 µM	1.77 µM	> 5 µM							CO[C@@H](C)c1ncc(N2CCN(C)CC2)cc1-c1c2c3cc(c(F)cc3n1CC(F)(F)F)-c1csc(n1)C[C@H](NC(=O)[C@H](C(C)C)N(C)C(=O)[C@H]1CC[C@H](C#CC(F)(F)F)CC1)C(=O)N1CCC[C@H](N1)C(=O)OCC(C)(C)C2 (atropisomer, axis not shown; (M)) [Example 9, trans-N-[(1S)-1-[[(7S,13S)-24-fluoro-(20M)-20-[2-[(1S)-1-methoxyethyl]-5-(4-methylpiperazin-1-yl)-3-pyridyl]-17,17-dimethyl-8,14-dioxo-21-(2,2,2-trifluoroethyl)-15-oxa-4-thia-9,21,27,28-tetrazapentacyclo[17.5.2.1^2,5.1^9,13.0^22,26]octacosa-1(25),2,5(28),19,22(26),23-hexaen-7-yl]carbamoyl]-2-methyl-propyl]-N-methyl-4-(3,3,3-trifluoroprop-1-ynyl)cyclohexanecarboxamide]
0.036 µM	> 10 µM	0.045 µM	0.006 µM	0.22 µM	> 10 µM	0.056 µM	0.065 µM	1.81 µM	0.328 µM							CO[C@@H](C)c1ncc(N2CCN(C)CC2)cc1-c1c2c3cc(c(F)cc3n1CC(F)(F)F)-c1csc(n1)C[C@H](NC(=O)[C@H](C(C)C)N(C)C(=O)[C@H]1C[C@@H](C#Cc3ncc(C(F)(F)F)cn3)C1)C(=O)N1CCC[C@H](N1)C(=O)OCC(C)(C)C2 (atropisomer, axis not shown; (M)) [Example 13, cis-N-[(1S)-1-[[(7S,13S)-24-fluoro-(20M)-20-[2-[(1S)-1-methoxyethyl]-5-(4-methylpiperazin-1-yl)-3-pyridyl]-17,17-dimethyl-8,14-dioxo-21-(2,2,2-trifluoroethyl)-15-oxa-4-thia-9,21,27,28-tetrazapentacyclo[17.5.2.1^2,5.1^9,13.0^22,26]octacosa-1(25),2,5(28),19,22(26),23-hexaen-7-yl]carbamoyl]-2-methyl-propyl]-N-methyl-3-[2-[5-(trifluoromethyl)pyrimidin-2-yl]ethynyl]cyclobutanecarboxamide]
0.041 µM	0.142 µM	0.063 µM	0.123 µM	0.219 µM	> 10 µM	0.006 µM	0.43 µM	0.509 µM	0.781 µM							CO[C@@H](C)c1ncc(N2CCN(C)CC2)cc1-c1c2c3cc(c(F)cc3n1CC(F)(F)F)-c1csc(n1)C[C@H](NC(=O)[C@H](C(C)C)N(C)C(=O)c1ccc(C#CC(F)(F)F)cc1)C(=O)N1CCC[C@H](N1)C(=O)OCC(C)(C)C2 (atropisomer, axis not shown; (M)) [Example 4, N-[(1S)-1-[[(7S,13S)-24-fluoro-(20M)-20-[2-[(1S)-1-methoxyethyl]-5-(4-methylpiperazin-1-yl)-3-pyridyl]-17,17-dimethyl-8,14-dioxo-21-(2,2,2-trifluoroethyl)-15-oxa-4-thia-9,21,27,28-tetrazapentacyclo[17.5.2.1^2,5.1^9,13.0^22,26]octacosa-1(25),2,5(28),19,22(26),23-hexaen-7-yl]carbamoyl]-2-methyl-propyl]-N-methyl-4-(3,3,3-trifluoroprop-1-ynyl)benzamide]
	9.95 µM			0.106 µM	1.1 µM		0.128 µM			0.23 µM	0.058 µM	0.007 µM	< 0.001 µM	0.145 µM	0.536 µM	CO[C@@H](C)c1ncc(N2CCN(C)CC2)cc1-c1c2c3cc(c(F)cc3n1CC(F)(F)F)-c1csc(n1)C[C@H](NC(=O)[C@H](C(C)C)N(C)C(=O)[C@H]1C[C@@H](C#Cc3ncccn3)C1)C(=O)N1CCC[C@H](N1)C(=O)OCC(C)(C)C2 (relative stereo) [Example 5, cis-N-[(1S)-1-[[(7S,13S)-24-fluoro-(20M)-20-[2-[(1S)-1-methoxyethyl]-5-(4-methylpiperazin-1-yl)-3-pyridyl]-17,17-dimethyl-8,14-dioxo-21-(2,2,2-trifluoroethyl)-15-oxa-4-thia-9,21,27,28-tetrazapentacyclo[17.5.2.1^2,5.1^9,13.0^22,26]octacosa-1(25),2,5(28),19,22(26),23-hexaen-7-yl]carbamoyl]-2-methyl-propyl]-N-methyl-3-(2-pyrimidin-2-ylethynyl)cyclobutanecarboxamide]
